As usually defined, the inhibition is the drop in the measured response relative to a control, in per cent.

The assay deals with T1, PTP-1B (Homo sapiens, UniProt P18031).
T1 sequence (P18031 1-435): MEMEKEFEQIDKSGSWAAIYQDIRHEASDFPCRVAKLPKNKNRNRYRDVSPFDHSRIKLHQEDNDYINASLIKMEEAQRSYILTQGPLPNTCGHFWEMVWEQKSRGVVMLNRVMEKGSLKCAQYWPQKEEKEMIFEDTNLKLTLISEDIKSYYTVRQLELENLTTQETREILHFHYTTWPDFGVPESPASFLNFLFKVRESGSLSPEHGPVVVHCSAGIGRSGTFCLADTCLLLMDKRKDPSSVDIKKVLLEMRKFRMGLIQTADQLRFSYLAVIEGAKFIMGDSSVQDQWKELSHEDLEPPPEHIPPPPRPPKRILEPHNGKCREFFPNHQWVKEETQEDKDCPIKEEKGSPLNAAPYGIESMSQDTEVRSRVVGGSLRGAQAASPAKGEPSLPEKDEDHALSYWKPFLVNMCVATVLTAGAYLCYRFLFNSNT
Briefly: PTPase inhibition assay (DIFMUP fluorescence kinetic assay). The class given is biochemical. The note with it: 20 μM DIFMUP, 1 nM enzyme; for Ki: apparent final potency from steady-state velocity (Vs), read-out: Kiapp; for inhibition at 40 µM: inhibitor at 40 μM, from average velocity (Va). The method, then: Measurement of PTPase activity: The present compounds are assayed in an enzyme activity-based assay. PTP-1B is known to dephosphorylate phospho-peptides. This assay is a fluorescence intensity based kinetic assay, taking advantage of a non-peptidyl substrate, 6,8-difluoro-4-methylumbelliferyl phosphate (DIFMUP). When excited at 358 nm, the dephosphorylated product of DIFMUP emits at 450 nm.
The compounds of Examples 1-22 were analyzed as follows. The assay was conducted in black 384-well non-treated plates (Costar#3710). The assay buffer contained 50 mM 3,3-dimethyl glutaric acid, pH 7.0, 48 mM NaCl, 1 mM EDTA. Inhibitors were prepared as DMSO solution and diluted to desired concentrations using 50 mM HEPES, pH 7.4. PTP-1B was diluted to a 2.5 nM working stock using the assay buffer containing additional 0.001% (w/v) hydrogenated Triton X-100. DIFMUP was diluted to 40 μM using the assay buffer. 5 μl of inhibitor was first dispensed into assay plate. In cases of control reactions, […] of the assay buffer was dispensed. This was followed by 25 μl of DIFMUP working stock. The reaction was then initiated by the addition of 20 μl of PTP-1B working stock. The final DIFMUP concentration was 20 μM (˜1.6×Km). The final enzyme concentration was 1 nM and the detergent concentration was 0.0004% (w/v). Typical inhibitor concentrations were from 0.08 to 40 μM. The reaction progress was monitored continuously for 30 min.
Calculations: For data analysis, the last five data points were used to obtain a slope corresponding to the estimated steady-state velocity (Vs), and the overall progress curves were used to obtain the average velocity (Va), by linear regression in both cases. The apparent final potency of inhibitor (Kiapp) was then calculated from Vs data, using the standard hyperbolic inhibition equation. The IC50 values were calculated from Va data using the sigmoidal inhibition equation. % Inhibition values were calculated from Va values of inhibitor at 40 μM, and the average Va value of control reactions.

For `O=C(O)c1ccc(COc2cc(-c3ccccc3)nc(-c3ccc(Cl)cc3)n2)cc1` [Example 1, 4-({[2-(4-Chlorophenyl)-6-phenylpyrimidin-4-yl]oxy}methyl)benzoic acid], the Ki was found to be 1.67 µM and the inhibition at 40 µM stood at 100%.

For `Fc1ccc(COc2nc(-c3ccc(Cl)cc3)nc3c2CCC3)cc1` [Example 2, 2-(4-Chlorophenyl)-4-[(4-fluorobenzyl)oxy]-6,7-dihydro-5H-cyclopenta[d]pyrimidine], the inhibition at 40 µM was found to be 10%.

As to `Fc1ccc(COc2cc(-c3ccccc3)nc(-c3ccncc3)n2)cc1` [Example 3, 4-[(4-Fluorobenzyl)oxy]-6-phenyl-2-pyridin-4-ylpyrimidine], the inhibition at 40 µM worked out at 11%.

Regarding `Fc1ccc(COc2nc(-c3ccccc3)nc3c2CCC3)cc1` [Example 4, 4-[(4-Fluorobenzyl)oxy]-2-phenyl-6,7-dihydro-5H-cyclopenta[d]pyrimidine], the inhibition at 40 µM stood at 12%.

As to `Fc1ccc(COc2cc(-c3ccccc3)nc(-c3ccc(Cl)cc3)n2)cc1` [Example 5, 2-(4-Chlorophenyl)-4-[(4-fluorobenzyl)oxy]-6-phenylpyrimidine], the inhibition at 40 µM turned out to be 11%.

Turning to `O=C(O)c1ccc(COc2cc(-c3ccccc3)nc(-c3ccncc3)n2)cc1` [Example 6, 4-{[(6-Phenyl-2-pyridin-4-ylpyrimidin-4-yl)oxy]methyl}benzoic acid], the Ki stood at 7.21 µM and the inhibition at 40 µM was determined as 56%.

Consider `O=C(O)c1ccc(COc2cc(-c3ccccc3)nc(-c3ccccc3)n2)cc1` [Example 7, 4-{[(2,6-Diphenylpyrimidin-4-yl)oxy]methyl}benzoic acid], for which the Ki was determined as 2.97 µM and the inhibition at 40 µM was determined as 99%.

As for `CC(C)c1cc(OCc2ccc(F)cc2)nc(-c2cc(Cl)cc(Cl)c2)n1` [Example 8, 2-(3,5-Dichlorophenyl)-4-[(4-fluorobenzyl)oxy]-6-isopropylpyrimidine], the inhibition at 40 µM was 48%.

With `Fc1ccc(COc2nc(-c3cc(Cl)cc(Cl)c3)nc3c2CN(Cc2ccccc2)CC3)cc1` [Example 9, 6-Benzyl-2-(3,5-dichlorophenyl)-4-[(4-fluorobenzyl)oxy]-5,6,7,8-tetrahydropyrido[4,3-d]pyrimidine], the inhibition at 40 µM was 55%.

As for `CC(C)c1cc(OCc2ccc(F)cc2)nc(-c2cccc([N+](=O)[O-])c2)n1` [Example 10, 4-[(4-Fluorobenzyl)oxy]-6-isopropyl-2-(3-nitrophenyl)pyrimidine], the inhibition at 40 µM is 56%.

With `CC(C)c1cc(OCc2ccc(C#N)cc2)nc(-c2cc(Cl)cc(Cl)c2)n1` [Example 11, 4-({[2-(3,5-Dichlorophenyl)-6-isopropylpyrimidin-4-yl]oxy}methyl)benzonitrile], the inhibition at 40 µM was found to be 34%.

For the compound `N#Cc1ccc(COc2nc(-c3cc(Cl)cc(Cl)c3)nc3c2CN(Cc2ccccc2)CC3)cc1` [Example 12, 4-({[6-Benzyl-2-(3,5-dichlorophenyl)-5,6,7,8-tetrahydropyrido[4,3-d]pyrimidin-4-yl]oxy}methyl)benzonitrile], the inhibition at 40 µM stood at 54%.

As to `CC(C)c1cc(OCc2ccc(C#N)cc2)nc(-c2cccc([N+](=O)[O-])c2)n1` [Example 13, 4-({[6-isopropyl-2-(3-nitrophenyl)pyrimidin-4-yl]oxy}methyl)benzonitrile], the inhibition at 40 µM worked out at 55%.

With `N#Cc1ccc(COc2nc(-c3cccc([N+](=O)[O-])c3)nc3c2CN(Cc2ccccc2)CC3)cc1` [Example 14, 4-({[6-Benzyl-2-(3-nitrophenyl)-5,6,7,8-tetrahydropyrido[4,3-d]pyrimidin-4-yl]oxy}methyl)benzonitrile], the inhibition at 40 µM is 64%.

As for `CC(C)c1cc(OCc2ccc(C(F)(F)F)cc2)nc(-c2cc(Cl)cc(Cl)c2)n1` [Example 15, 2-(3,5-Dichlorophenyl)-4-isopropyl-6-{[4-(trifluoromethyl)benzyl]oxy} pyrimidine], the inhibition at 40 µM was 57%.

As for `FC(F)(F)c1ccc(COc2nc(-c3cc(Cl)cc(Cl)c3)nc3c2CN(Cc2ccccc2)CC3)cc1` [Example 16, 6-Benzyl-2-(3,5-dichlorophenyl)-4-{[4-(trifluoromethyl)benzyl]oxy}-5,6,7,8-tetrahydropyrido[4,3-d]pyrimidine], the inhibition at 40 µM turned out to be 52%.

As for `CC(C)c1cc(OCc2ccc(C(F)(F)F)cc2)nc(-c2cccc([N+](=O)[O-])c2)n1` [Example 17, 4-Isopropyl-2-(3-nitrophenyl)-6-{[4-(trifluoromethyl)benzyl]oxy} pyrimidine], the inhibition at 40 µM came to 49%.

`O=[N+]([O-])c1cccc(-c2nc3c(c(OCc4ccc(C(F)(F)F)cc4)n2)CN(Cc2ccccc2)CC3)c1` [Example 18, 6-Benzyl-2-(3-nitrophenyl)-4-{[4-(trifluoromethyl)benzyl]oxy}-5,6,7,8-tetrahydropyrido[4,3-d]pyrimidine]: the inhibition at 40 µM was 51%.

In the case of `CC(C)c1cc(OCc2ccc(C(=O)O)cc2)nc(-c2cc(Cl)cc(Cl)c2)n1` [Example 19, 4-({[2-(3,5-Dichlorophenyl)-6-isopropylpyrimidin-4-yl]oxy}methyl)benzoic acid], the inhibition at 40 µM was 101%.

For the compound `O=C(O)c1ccc(COc2nc(-c3cc(Cl)cc(Cl)c3)nc3c2CN(Cc2ccccc2)CC3)cc1` [Example 20, 4-({[6-Benzyl-2-(3,5-dichlorophenyl)-5,6,7,8-tetrahydropyrido[4,3-d]pyrimidin-4-yl]oxy}methyl)benzoic acid], the inhibition at 40 µM was 100%.

For the compound `CC(C)c1cc(OCc2ccc(C(=O)O)cc2)nc(-c2cccc([N+](=O)[O-])c2)n1` [Example 21, 4-({[6-Isopropyl-2-(3-nitrophenyl)pyrimidin-4-yl]oxy}methyl)benzoic acid], the inhibition at 40 µM worked out at 101%.

With `O=C(O)c1ccc(COc2nc(-c3cccc([N+](=O)[O-])c3)nc3c2CN(Cc2ccccc2)CC3)cc1` [Example 22, 4-({[6-Benzyl-2-(3-nitrophenyl)-5,6,7,8-tetrahydropyrido[4,3-d]pyrimidin-4-yl]oxy}methyl)benzoic acid], the inhibition at 40 µM worked out at 93%.

Source of the values: US7423044B2, “Pyrimidine derivatives useful in the treatment of insulin resistance and hyperglycemia” (Wyeth, priority 2002, dated 2008).
